# From BindingDB's records for doi:10.1021/acsmedchemlett.1c00445 (Janssen Research & Development, 2022)
# Assay: Inhibition of human amyloid beta (1 to 42) in human SKNBE2 cells expressing wild-type amyloid precursor protein hAPP695 incubated for 18 hrs by sandwich ELISA
row,Compound,IC50 [nM]
1,C[C@@]1(c2cc(NC(=O)c3ccc(F)cn3)ccc2F)Cn2nc(C#N)cc2C(N)=N1,2.6
2,C[C@@]1(c2cc(NC(=O)c3ccc(Cl)cn3)ccc2F)Cn2c(C#N)cnc2C(N)=N1,3.6
3,COc1cnc(C(=O)Nc2ccc(F)c([C@]3(C)Cn4c(C#N)cnc4C(N)=N3)c2)cn1,6.3
4,Cc1nc(C(=O)Nc2ccc(F)c([C@]3(C)Cn4nc(C#N)cc4C(N)=N3)c2)co1,4.8
5,C[C@@]1(c2cc(NC(=O)c3ccc(C#N)cn3)ccc2F)Cn2cc(C#N)nc2C(N)=N1,8.5
6,C[C@@]1(c2cc(NC(=O)c3ccc(F)cn3)ccc2F)Cn2c(C#N)cnc2C(N)=N1,13
7,C[C@@]1(c2cc(NC(=O)c3ccc(C#N)cn3)ccc2F)Cn2c(C#N)cnc2C(N)=N1,3.3

# The next molecules have a lower IC50 than those just listed; values first:
row,IC50 [nM],Compound
1,2.5,C[C@@]1(c2cc(NC(=O)c3cnc(C(F)F)cn3)ccc2F)Cn2nc(C#N)cc2C(N)=N1
2,1.3,COc1cnc(C(=O)Nc2ccc(F)c([C@]3(C)Cn4nc(C#N)cc4C(N)=N3)c2)cn1
3,1.2,C[C@@]1(c2cc(NC(=O)c3cnc(OCF)cn3)ccc2F)Cn2nc(C#N)cc2C(N)=N1
4,1,C[C@@]1(c2cc(NC(=O)c3ccc(C#N)cn3)ccc2F)Cn2nc(C#N)cc2C(N)=N1
5,1,C[C@@]1(c2cc(NC(=O)c3ccc(OC(F)F)cn3)ccc2F)Cn2nc(C#N)cc2C(N)=N1
